Toxic doses and inconclusive results are not listed.
Tested on: B6C3F1 mice, ip Sarcoma M5076, median survival T/C
Assay: NCI In Vivo Anticancer Drug Screen. Data for tumor model Sarcoma M5076 (intraperitoneal) in B6C3F1 mice
Conditions: endpoint: median survival time, higher = longer survival
Experimental: The antitumor activity of compounds was measured in mice bearing transplantable tumors. Survival or tumor size were measured and the results are expressed as the measurement made in the treated group (T) divided by the measurement made in the vehicle treated control group (C). The tumor model used in this assay is Sarcoma M5076 (intraperitoneal) in B6C3F1 mice

[1] = dose: 37.5 mg/kg/injection, schedule: Q04DX004 (ip), vehicle: Klucel (hydroxypropylcellulose) (HPC)
[2] = dose: 75.0 mg/kg/injection, schedule: Q04DX004 (ip), vehicle: Klucel (hydroxypropylcellulose) (HPC)
[3] = dose: 150.0 mg/kg/injection, schedule: Q04DX004 (ip), vehicle: Klucel (hydroxypropylcellulose) (HPC)
[4] = dose: 50.0 mg/kg/injection, schedule: Q04DX004 (ip), vehicle: water
[5] = dose: 100.0 mg/kg/injection, schedule: Q04DX004 (ip), vehicle: water
[6] = dose: 200.0 mg/kg/injection, schedule: Q04DX004 (ip), vehicle: water
[7] = dose: 12.5 mg/kg/injection, schedule: Q04DX004 (ip), vehicle: Klucel (hydroxypropylcellulose) (HPC)
[8] = dose: 25.0 mg/kg/injection, schedule: Q04DX004 (ip), vehicle: Klucel (hydroxypropylcellulose) (HPC)
[9] = dose: 50.0 mg/kg/injection, schedule: Q04DX004 (ip), vehicle: Klucel (hydroxypropylcellulose) (HPC)
[10] = dose: 100.0 mg/kg/injection, schedule: Q04DX004 (ip), vehicle: Klucel (hydroxypropylcellulose) (HPC)

SMILES: CN(C)CCNC1=CC(=O)c2ccccc2C1=O
- T/C (dose: 50.0 mg/kg/injection, schedule: Q04DX004 (ip), vehicle: distilled water + Tween-80): 101 % of control
- T/C (dose: 100.0 mg/kg/injection, schedule: Q04DX004 (ip), vehicle: distilled water + Tween-80): 101 % of control

SMILES: CN(C)C(=O)SC1=C(c2c(Cl)cccc2Cl)C(=O)c2ccccc21
- T/C [1]: 97 % of control
- T/C [2]: 113 % of control
- T/C [3]: 104 % of control
- T/C (dose: 300.0 mg/kg/injection, schedule: Q04DX004 (ip), vehicle: Klucel (hydroxypropylcellulose) (HPC)): 95 % of control
- T/C (dose: 1200.0 mg/kg/injection, schedule: Q04DX004 (ip), vehicle: Klucel (hydroxypropylcellulose) (HPC)): 95 % of control

SMILES: O=C1CN(CCN2CC(=O)N(CN3CCOCC3)C(=O)C2)CC(=O)N1CN1CCOCC1
- T/C [4]: 97 % of control
- T/C [5]: 109 % of control

SMILES: O=C1C=CC2OC(c3ccccc3)C(O)C2O1 (stereo not drawn)
- T/C (dose: 6.25 mg/kg/injection, schedule: Q04DX004 (ip), vehicle: DMSO): 105 % of control
- T/C (dose: 12.5 mg/kg/injection, schedule: Q04DX004 (ip), vehicle: DMSO): 107 % of control
- T/C (dose: 25.0 mg/kg/injection, schedule: Q04DX004 (ip), vehicle: DMSO): 112 % of control
- T/C (dose: 50.0 mg/kg/injection, schedule: Q04DX004 (ip), vehicle: DMSO): 107 % of control

SMILES: [Na+]
- T/C [4]: 94 % of control
- T/C [5]: 97 % of control
- T/C [6]: 101 % of control
- T/C (dose: 400.0 mg/kg/injection, schedule: Q04DX004 (ip), vehicle: water): 88 % of control
- T/C (dose: 800.0 mg/kg/injection, schedule: Q04DX004 (ip), vehicle: water): 98 % of control

SMILES: CN(C)CCC(=O)C(=Cc1ccc(O)cc1)C(=O)CCN(C)C
- T/C (dose: 25.0 mg/kg/injection, schedule: Q04DX004 (ip), vehicle: saline): 103 % of control
- T/C (dose: 50.0 mg/kg/injection, schedule: Q04DX004 (ip), vehicle: saline): 100 % of control
- T/C (dose: 100.0 mg/kg/injection, schedule: Q04DX004 (ip), vehicle: saline): 104 % of control
- T/C (dose: 200.0 mg/kg/injection, schedule: Q04DX004 (ip), vehicle: saline): 100 % of control

SMILES: Cn1c(-c2ccc(/C=N\N3CCN(/N=C/c4ccc(-c5c[n+]6ccsc6n5C)cc4)CC3)cc2)c[n+]2ccsc12
- T/C (dose: 1.5 mg/kg/injection, schedule: Q04DX004 (ip), vehicle: saline with Tween-80): 109 % of control
- T/C (dose: 3.0 mg/kg/injection, schedule: Q04DX004 (ip), vehicle: saline with Tween-80): 104 % of control
- T/C (dose: 6.0 mg/kg/injection, schedule: Q04DX004 (ip), vehicle: saline with Tween-80): 101 % of control

SMILES: CCC1=C(c2cccc(OC(C)=O)c2)C(C)c2ccc(OC(C)=O)cc21 (stereo not drawn)
- T/C (dose: 6.25 mg/kg/injection, schedule: Q04DX004 (ip), vehicle: Klucel (hydroxypropylcellulose) (HPC)): 93 % of control
- T/C [7]: 93 % of control
- T/C [8]: 100 % of control
- T/C [9]: 116 % of control
- T/C [10]: 105 % of control
- T/C (dose: 200.0 mg/kg/injection, schedule: Q04DX004 (ip), vehicle: Klucel (hydroxypropylcellulose) (HPC)): 91 % of control

SMILES: CC(=O)OC1C(O)C(C)OC(OC2C(OC(=O)C3CCC4C(C3)OC3(CC(OC(=O)/C=C/c5ccccc5)C(C)CO3)C43CO3)OC(C)C(O)C2OC(C)=O)C1O (stereo not drawn)
- T/C (dose: 1.0 mg/kg/injection, schedule: Q01DX009 (ip), vehicle: saline + alcohol): 100 % of control
- T/C (dose: 1.0 mg/kg/injection, schedule: Q04DX004 (ip), vehicle: saline + alcohol): 107 % of control
- T/C (dose: 2.0 mg/kg/injection, schedule: Q01DX009 (ip), vehicle: saline + alcohol): 105 % of control
- T/C (dose: 2.0 mg/kg/injection, schedule: Q04DX004 (ip), vehicle: saline + alcohol): 112 % of control
- T/C (dose: 4.0 mg/kg/injection, schedule: Q01DX009 (ip), vehicle: saline + alcohol): 113 % of control
- T/C (dose: 4.0 mg/kg/injection, schedule: Q04DX004 (ip), vehicle: saline + alcohol): 116 % of control
- T/C (dose: 8.0 mg/kg/injection, schedule: Q01DX009 (ip), vehicle: saline + alcohol): 121 % of control
- T/C (dose: 12.96 mg/kg/injection, schedule: Q04DX004 (ip), vehicle: saline + alcohol): 123 % of control
- T/C (dose: 21.6 mg/kg/injection, schedule: Q04DX004 (ip), vehicle: saline + alcohol): 115 % of control
- T/C (dose: 36.0 mg/kg/injection, schedule: Q04DX004 (ip), vehicle: saline + alcohol): 157 % of control
- T/C (dose: 60.0 mg/kg/injection, schedule: Q04DX004 (ip), vehicle: saline + alcohol): 116 % of control
- T/C (dose: 100.0 mg/kg/injection, schedule: Q04DX004 (ip), vehicle: saline + alcohol): 115 % of control

SMILES: CC1(C)CC(OS(C)(=O)=O)CC(C)(C)N1O
- T/C (dose: 18.75 mg/kg/injection, schedule: Q04DX004 (ip), vehicle: Klucel (hydroxypropylcellulose) (HPC)): 99 % of control
- T/C [1]: 100 % of control
- T/C [2]: 102 % of control
- T/C [3]: 102 % of control

SMILES: Nc1ccn([C@@H]2C=C(CO)[C@@H](O)[C@H]2O)c(=O)n1
- T/C (dose: 0.13 mg/kg/injection, schedule: Q01DX013 (ip), vehicle: saline): 96 % of control
- T/C (dose: 0.25 mg/kg/injection, schedule: Q01DX013 (ip), vehicle: saline): 104 % of control
- T/C (dose: 0.5 mg/kg/injection, schedule: Q01DX013 (ip), vehicle: saline): 105 % of control

SMILES: Cc1c(O)/c(=C\O)c2nc3c(=O)ccc(C(=O)NCCN(C)C)c3[nH]c2c1=O
- T/C (dose: 25.0 mg/kg/injection, schedule: Q04DX004 (ip), vehicle: water): 100 % of control
- T/C [4]: 107 % of control
- T/C [5]: 107 % of control
- T/C [6]: 112 % of control

SMILES: CC(=O)C1C(=O)C(=O)N(c2cc(C)ccc2O)C1=O (stereo not drawn)
- T/C (dose: 50.0 mg/kg/injection, schedule: Q04DX004 (ip), vehicle: Klucel + Tween-80): 106 % of control
- T/C (dose: 100.0 mg/kg/injection, schedule: Q04DX004 (ip), vehicle: Klucel + Tween-80): 100 % of control

SMILES: C=C1c2cccc(O)c2C(O)=C2C(=O)[C@]3(O)C(O)=C(C(N)=O)C(=O)[C@@H](N(C)C)[C@@H]3[C@@H](O)[C@H]12
- T/C [7]: 105 % of control
- T/C [8]: 105 % of control
- T/C [9]: 101 % of control
- T/C [10]: 102 % of control

SMILES: COc1cc2c(c(OC)c1O)-c1ccc(OC)c(=O)cc1[C@@H](NC(=O)C(F)(F)F)CC2
- T/C (dose: 0.9 mg/kg/injection, schedule: Q04DX004 (ip), vehicle: Klucel (hydroxypropylcellulose) (HPC)): 110 % of control
- T/C (dose: 1.55 mg/kg/injection, schedule: Q04DX004 (ip), vehicle: Klucel (hydroxypropylcellulose) (HPC)): 124 % of control
- T/C (dose: 2.59 mg/kg/injection, schedule: Q04DX004 (ip), vehicle: Klucel (hydroxypropylcellulose) (HPC)): 122 % of control
- T/C (dose: 4.32 mg/kg/injection, schedule: Q04DX004 (ip), vehicle: Klucel (hydroxypropylcellulose) (HPC)): 124 % of control
- T/C (dose: 7.2 mg/kg/injection, schedule: Q04DX004 (ip), vehicle: Klucel (hydroxypropylcellulose) (HPC)): 124 % of control

SMILES: CC1CC12OC(=O)N(c1cc(Cl)cc(Cl)c1)C2=O (stereo not drawn)
- T/C (dose: 37.5 mg/kg/injection, schedule: Q04DX004 (ip), vehicle: saline + Tween-80 + alcohol): 101 % of control
- T/C (dose: 75.0 mg/kg/injection, schedule: Q04DX004 (ip), vehicle: saline + Tween-80 + alcohol): 99 % of control
- T/C (dose: 150.0 mg/kg/injection, schedule: Q04DX004 (ip), vehicle: saline + Tween-80 + alcohol): 99 % of control
- T/C (dose: 300.0 mg/kg/injection, schedule: Q04DX004 (ip), vehicle: saline + Tween-80 + alcohol): 95 % of control
- T/C (dose: 600.0 mg/kg/injection, schedule: Q04DX004 (ip), vehicle: saline + Tween-80 + alcohol): 91 % of control

SMILES: CC(C)CCC(=O)c1ccoc1
- T/C (dose: 0.25 mg/kg/injection, schedule: Q03HX012 (ip), vehicle: saline with Tween-80): 96 % of control
- T/C (dose: 0.5 mg/kg/injection, schedule: Q03HX012 (ip), vehicle: saline with Tween-80): 96 % of control
- T/C (dose: 1.0 mg/kg/injection, schedule: Q03HX012 (ip), vehicle: saline with Tween-80): 90 % of control
- T/C (dose: 2.0 mg/kg/injection, schedule: Q03HX012 (ip), vehicle: saline with Tween-80): 99 % of control

SMILES: CS(=O)CCN=Cc1ccc(N=Nc2ccc(O)cc2)cc1 (stereo not drawn)
- T/C (dose: 37.0 mg/kg/injection, schedule: Q04DX004 (ip), vehicle: saline with Tween-80): 109 % of control
- T/C (dose: 75.0 mg/kg/injection, schedule: Q04DX004 (ip), vehicle: saline with Tween-80): 90 % of control
- T/C (dose: 150.0 mg/kg/injection, schedule: Q04DX004 (ip), vehicle: saline with Tween-80): 87 % of control
- T/C (dose: 600.0 mg/kg/injection, schedule: Q04DX004 (ip), vehicle: saline with Tween-80): 87 % of control

From PubChem BioAssay AID292 (DTP/NCI, 2004)
